# Entries after “also recorded” stand apart in the source; their conditions may differ. Marks after values point to notes of the source that are not given here.
# How the values were obtained:
# Assay type in all cases: in vivo, human
# [1] = tested on: healthy adults; experiment: Treatment-emergent adverse events, multiple ascending dose (MAD) cohorts; conditions: n = 6
# Experimental: (§1) The MAD cohorts also used a randomized, double-blind, placebo-controlled, sequential design. […] Safety was assessed by the incidence of adverse events (AEs) and by the incidence of reduced LVEF. Treatment-emergent AEs (TEAEs) were defined as AEs that began or increased after study drug administration. All AEs were coded using the Medical Dictionary for Regulatory Activities, version 21.1, and graded using the National Cancer Institute Common Terminology Criteria for AEs (version 4.03) 5-point severity scale.[18] Each AE was judged as either related or unrelated to the study drug by the treating investigator. Clinical laboratory tests were obtained at regular intervals in all cohorts.
# [2] = tested on: healthy adults; experiment: Treatment-emergent adverse events, single ascending dose (SAD) cohorts
# Experimental: as §1, with “SAD portion of the study” for “MAD cohorts also”, “sequential, escalating dose design, in which participants received single ascending oral doses of the study drug. Seven cohorts were dosed in sequence (Figure 1).” for “sequential design.”
# [3] = tested on: healthy adults; experiment: Safety echocardiograms assessed by study cardiologist (AEs of decreased LVEF); conditions: for LVEF deemed AE (decreased ejection fraction <45%): study cardiologist
# Excerpt: Recommendations regarding dose escalation in the SAD cohorts—and in the MAD cohorts described in the next section—were made by the treating investigator (who was blinded to treatment group) and endorsed or not by the Dose Level Review Committee (DLRC), the members of which were unblinded. […] Criteria for escalation included that no more than 2 participants in a dose group developed an LVEF of <50% and that no individual developed an LVEF of <45%; escalation criteria are given in full in the Supplemental Appendix. For safety monitoring, participants in all cohorts had periodic echocardiograms, which were assessed by a cardiologist. In the SAD and MAD cohorts, echocardiograms were also reviewed by an echocardiography core laboratory for PD assessments, as described in the section on echocardiographic methods. In addition, participants in all cohorts were monitored with continuous 12-lead ECG recording using Holter monitors. For safety monitoring, a single 12-lead ECG was extracted at screening, predose, and periodically throughout follow-up and interpreted by the investigator. In the SAD, MAD, and CYP2D6-PM cohorts, cardiodynamic ECGs (triplicate 10-second, 12-lead ECG recordings) were obtained before the corresponding PK blood sample (see the Supplemental Appendix for full details on blood sampling), and ECG intervals were quantitated by qualified readers.
# [4] = tested on: healthy adults; experiment: Overall safety and tolerability (AEs, ECG, vital signs, laboratory tests), all cohorts
# Experimental: Safety was assessed by the incidence of adverse events (AEs) and by the incidence of reduced LVEF. Treatment-emergent AEs (TEAEs) were defined as AEs that began or increased after study drug administration. All AEs were coded using the Medical Dictionary for Regulatory Activities, version 21.1, and graded using the National Cancer Institute Common Terminology Criteria for AEs (version 4.03) 5-point severity scale.[18] Each AE was judged as either related or unrelated to the study drug by the treating investigator. Clinical laboratory tests were obtained at regular intervals in all cohorts.
# For safety monitoring, participants in all cohorts had periodic echocardiograms, which were assessed by a cardiologist. In the SAD and MAD cohorts, echocardiograms were also reviewed by an echocardiography core laboratory for PD assessments, as described in the section on echocardiographic methods. In addition, participants in all cohorts were monitored with continuous 12-lead ECG recording using Holter monitors. For safety monitoring, a single 12-lead ECG was extracted at screening, predose, and periodically throughout follow-up and interpreted by the investigator. In the SAD, MAD, and CYP2D6-PM cohorts, cardiodynamic ECGs (triplicate 10-second, 12-lead ECG recordings) were obtained before the corresponding PK blood sample (see the Supplemental Appendix for full details on blood sampling), and ECG intervals were quantitated by qualified readers.
# [5] = SAD 40 mg, one participant, 6 h after drug dose
# [6] = SAD 50 mg, one participant, 4 h after drug dose
# [7] = SAD 75 mg, single participant, 4 h after drug dose
compound,measurement,setting,value
CCc1nc(-c2ccc3c(c2)CC[C@H]3NC(=O)c2cnn(C)c2)no1 [Aficamten],Participants with any TEAE,[1]; MAD 5 mg qd × 14 d,1 (17) n (%)
same,TEAE: Chapped lips,[1]; MAD 5 mg qd × 14 d,1 (17) n (%)
same,TEAE: Cough,[1]; MAD 5 mg qd × 14 d,1 (17) n (%)
same,TEAE: Salivary hypersecretion,[1]; MAD 5 mg qd × 14 d,1 (17) n (%)
same,Participants with any TEAE,[1]; MAD 10 mg qd × 14 d,2 (33) n (%)
same,TEAE: Headache,[1]; MAD 10 mg qd × 14 d,1 (17) n (%)
same,TEAE: Upper respiratory tract infection,[1]; MAD 10 mg qd × 14 d,1 (17) n (%)
same,Participants with any TEAE,"[2]; SAD 1 mg, n = 6",1 (17) n (%)
same,Participants with any TEAE,"[2]; SAD 10 mg, n = 6",1 (17) n (%)
same,TEAE: Headache,"[2]; SAD 10 mg, n = 6",1 (17) n (%)
same,Participants with any TEAE,"[2]; SAD 25 mg, n = 6",5 (83) n (%)
same,TEAE: Abdominal tenderness,"[2]; SAD 25 mg, n = 6",1 (17) n (%)
same,TEAE: Dyspepsia,"[2]; SAD 25 mg, n = 6",1 (17) n (%)
same,TEAE: Flatulence,"[2]; SAD 25 mg, n = 6",1 (17) n (%)
same,TEAE: Headache,"[2]; SAD 25 mg, n = 6",2 (33) n (%)
same,TEAE: Nausea,"[2]; SAD 25 mg, n = 6",2 (33) n (%)
same,TEAE: Upper abdominal pain,"[2]; SAD 25 mg, n = 6",2 (33) n (%)
same,Participants with any TEAE,"[2]; SAD 40 mg, n = 6",1 (17) n (%)
same,TEAE: Ejection fraction decreased,"[2]; SAD 40 mg, n = 6",1 (17) n (%)
same,Participants with any TEAE,"[2]; SAD 50 mg, n = 11",4 (36) n (%)
same,TEAE: Abdominal tenderness,"[2]; SAD 50 mg, n = 11",1 (9) n (%)
same,TEAE: Dyspepsia,"[2]; SAD 50 mg, n = 11",1 (9) n (%)
same,TEAE: Ejection fraction decreased,"[2]; SAD 50 mg, n = 11",1 (9) n (%)
same,TEAE: Flatulence,"[2]; SAD 50 mg, n = 11",1 (9) n (%)
same,TEAE: Headache,"[2]; SAD 50 mg, n = 11",1 (9) n (%)
same,TEAE: Chest pain,"[2]; SAD 50 mg, n = 11, bubbling sensation to the left chest, consistent with a gastrointestinal rather than cardiac association",1 (9) ^a n (%)
same,Participants with any TEAE,"[2]; SAD 75 mg, n = 1",1 (100) n (%)
same,TEAE: Ejection fraction decreased,"[2]; SAD 75 mg, n = 1",1 (100) n (%)
same,TEAE: Chest pain,"[2]; SAD 75 mg, n = 1, onset approximately 60 hours postdose",1 (100) ^b n (%)
same,Participants with echocardiogram-related AEs of decreased LVEF of <45%,"[3]; 1 each in SAD 40-mg, 50-mg, and 75-mg cohorts",3 participants
same,AEs of decreased ejection fraction of <45%,"[3]; MAD, CYP2D6-PM, and food-effect cohorts",no echocardiographic AEs
same,Grade of AE of decreased ejection fraction,"[3]; SAD 40 mg, one participant",1 (mild)
same,Onset of AE of decreased ejection fraction (time after drug dose),"[3]; SAD 40 mg, one participant",1.4 h
same,LVEF recorded at resolution of AE,[3]; [5],58.4%
same,Time from onset to resolution of AE of decreased ejection fraction,[3]; [5],4.6 h
same,LVEF deemed AE (decreased ejection fraction <45%),"[3]; SAD 40 mg, one participant",42.2%
same,Decrease in LVEF of 1 participant after cohort expansion,[3]; SAD 50 mg,> 15%
same,LVEF of 1 participant after cohort expansion,[3]; SAD 50 mg,< 45%
same,Postdose LVEF of 1 participant (<50%),"[3]; SAD 50 mg, initial cohort",46.2%
same,Grade of AE of decreased ejection fraction,"[3]; SAD 50 mg, one participant",1 (mild)
same,Onset of AE of decreased ejection fraction (time after drug dose),"[3]; SAD 50 mg, one participant",1.5 h
same,LVEF recorded at resolution of AE,[3]; [6],50.2%
same,Time from onset to resolution of AE of decreased ejection fraction,[3]; [6],2.5 h
same,LVEF deemed AE (decreased ejection fraction <45%),"[3]; SAD 50 mg, one participant",42.1%
same,Postdose LVEF of the sentinel participant,[3]; SAD 75 mg,< 45%
same,Reduction in LVEF of the single participant,"[3]; SAD 75 mg, […] postdose",31.5%
same,Grade of AE of decreased ejection fraction,"[3]; SAD 75 mg, single participant",1 (mild)
same,Onset of AE of decreased ejection fraction (time after drug dose),"[3]; SAD 75 mg, single participant",1.5 h
same,LVEF recorded at resolution of AE,[3]; [7],51.9%
same,Time from onset to resolution of AE of decreased ejection fraction,[3]; [7],2.5 h
same,LVEF deemed AE (decreased ejection fraction <45%),"[3]; SAD 75 mg, single participant, […] postdose",34.6%
same,Time to resolution of AEs of decreased LVEF (next echocardiogram assessment),"[3]; SAD 40, 50, 75 mg",2.5 to 4.6 h
same,Discontinuation of the study because of AEs,[4]; all cohorts,no participants discontinued
same,Serious AEs,[4]; all cohorts,no serious AEs; also recorded: without serious AEs
same,Vital signs at postdose timepoints,[4]; all cohorts,within normal limits
same,QTcF at baseline or any assessment during the dosing interval,"[4]; all cohorts, exception of 2 individuals with baseline QTcF ≥440 ms whose QTcF increased by 3 and 13 ms",≤ 450 ms
same,Increase in QTcF interval,"[4]; all cohorts, only exception was 1 participant in the SAD placebo group",≤ 30 ms
same,"Serum chemistry, hematology, or urinalysis findings",[4]; during the study,No clinically significant
same,Effect on the QT interval (cardiodynamic assessments),[4]; following single or multiple doses,no evidence of an effect
same,Tolerability,[4]; single doses of ≤50 mg or daily dosing of ≤10 mg for 14 or 17 days,safe and well tolerated
same,Severity of observed TEAEs,[4]; single-dose and multiple-dose administration,generally mild (grade 1)
